Reference: patent US4185152A, “Thiazolidinyl alkoxy pyridines” (Warner-Lambert Company, priority 1971, dated 1980)
Read-outs that look alike come from different tables or passages of the source.

What was measured:
[1] = system: mice exposed to X-ray or gamma ray radiation; assay: antiradiation test, 30-day survival of irradiated mice; format: in vivo; conditions: Mus musculus, light or radiation study, ip, i.p., 950 R cobalt-60 gamma or 825 R X-ray, read-out: Survival (30 days)
Text: The compounds of the invention are new chemical compounds that are useful as pharmacological agents, especially as antiradiation agents that are active in protecting against the effects of exposure to X-ray or gamma ray radiation.
In this table, the activity of each compound is expressed in terms of the percentage of animals that survived (30 days) the exposure to radiation at the given dose. The dose given is generally the lowest dose at which a high rate of survival was obtained. Administration was by the intraperitoneal route. Except where indicated otherwise, each compound was administered as the monohydrochloride salt to a test group consisting of 15 mice. The radiation dose was either 950 Roentgens supplied by a cobalt-60 gamma ray source or 825 Roentgens from an X-ray source.

[2] = approximate LD50 (acute toxicity, antiradiation activity table); conditions: mouse, in vivo, ip, mice, intraperitoneal
[3] = 0.5 h, pre-irradiation time 30 min., 15 mice, monohydrochloride
[4] = 0.25 h, pre-irradiation time 15 min., 15 mice, monohydrochloride

Structure (SMILES): Brc1ccc(OCCCCCCCCN2CCSC2)nc1.Cl [Br 8, 5-Bromo-2-{[8-(3-thiazolidinyl)octyl]oxy}-pyridine, monohydrochloride]
- responders at 50 mg/kg ([1]; 0.5 h, dose 50 mg./kg., pre-irradiation time 30 min., 15 mice, monohydrochloride): 20%
- LD50 ([2]; monohydrochloride salt): ~230 mg/kg

Structure (SMILES): Cl.Ic1ccc(OCCCCCN2CCSC2)nc1 [I 5, 5-Iodo-2-{[5-(3-thiazolidinyl)pentyl]oxy}-pyridine, monohydrochloride]
- responders at 100 mg/kg [1, 3]: 93%
- LD50 ([2]; monohydrochloride salt): ~230 mg/kg

Structure (SMILES): Brc1ccc(OCCCN2CCSC2)nc1.Cl [Br 3, 5-bromo-2-[3-(3-thiazolidinyl)propoxy]pyridine, monohydrochloride]
- responders at 100 mg/kg [1, 4]: 33%
- LD50 ([2]; monohydrochloride salt): ~250 mg/kg

Structure (SMILES): Brc1ccc(OCCCCCN2CCSC2)nc1.Cl [Br 5, 5-Bromo-2-{[5-(3-thiazolidinyl)pentyl]oxy}-pyridine, monohydrochloride]
- responders at 90 mg/kg ([1]; 0.5 h, dose 90 mg./kg., pre-irradiation time 30 min., six mice, monohydrochloride): 83%
- responders at 180 mg/kg ([1]; 0.5 h, dose 180 mg./kg., pre-irradiation time 30 min., six mice, monohydrochloride): 100%
- LD50 ([2]; monohydrochloride salt): ~240 mg/kg

Structure (SMILES): Cl.Ic1ccc(OCCCCCCCN2CCSC2)nc1 [I 7, 5-Iodo-2-{[7-(3-thiazolidinyl)heptyl]oxy}-pyridine, monohydrochloride]
- responders at 100 mg/kg [1, 3]: 47%
- LD50 ([2]; monohydrochloride salt): ~200 mg/kg

Structure (SMILES): Cc1ccc(OCCCCCN2CCSC2)nc1 [CH3 5, 5-methyl-2-{[5-(3-thiazolidinyl)pentyl]-oxy}pyridine]
- responders at 70 mg/kg ([1]; 0.5 h, dose 70 mg./kg., pre-irradiation time 30 min., 15 mice, dihydrochloride): 33%
- LD50 ([2]; dihydrochloride salt): ~190 mg/kg

Structure (SMILES): Cl.Ic1ccc(OCCCCN2CCSC2)nc1 [I 4, 5-iodo-2-[4-(3-thiazolidinyl)-butoxy]pyridine, monohydrochloride]
- responders at 100 mg/kg [1, 4]: 20%
- LD50 ([2]; monohydrochloride salt): > 300 mg/kg

Structure (SMILES): Cl.Cl.Clc1ccc(OCCCCCN2CCSC2)nc1 [Cl 5, 5-Chloro-2-{[5-(3-thiazolidinyl)pentyl]-oxy}pyridine, dihydrochloride]
- responders at 80 mg/kg ([1]; 0.25 h, pre-irradiation time 15 min., 15 mice, dihydrochloride): 87%
- responders at 80 mg/kg ([1]; 0.5 h, pre-irradiation time 30 min., 15 mice, dihydrochloride): 93%
- LD50 ([2]; dihydrochloride salt): ~160 mg/kg
